Results on two molecules are retold here after article PMC10971055 (International Journal of Molecular Sciences, 2024).

The term IC50 denotes the concentration needed to halve the response being measured. A word on the melting point: it is the temperature, or range, at which the solid turns liquid.

The test system of series [1] is COX-1. Put plainly: Western blotting of COX-1. (In western blotting, separated proteins are transferred to a membrane and probed.)
For series [2], the system named is fibroblast cells. Put plainly: MTT test, cytotoxicity. The class given is cell-based. The settings on record: 24 h, read-out: IC50 against fibroblast cells. As for the experimental part: The cytotoxicity of the IA was investigated during 24 h at various concentrations against fibroblast cell lines using the MTT test. […].
The MTT Reagent was purchased from Biospes (Biospes, China, Cat n#BAR1005-1), and used according to the manufacturer’s instructions. Twenty-four hours prior to the MTT experiment, breast cancer cell lines (MCF-7 Cell Line) were seeded at a concentration of 5 × 10^4 cells per well in 96-well microplates to facilitate microplate adherence. Various agent concentrations were administered to the cultured cells. The cells were treated with 10 μL of MTT solution, and 100 μL of serum-free medium was added to every well. The plate was kept at 37 °C for 4 h in a CO2 incubator. Then, each well received 100 μL of formazan diluent buffer. The plate was incubated at 37 °C for the entire night after being wrapped in foil and given a 15-min orbital shake. An ELISA plate reader (Stat Fax 2200, Awareness Technologies, Palm City, FL, USA) was used to measure color absorbance in the OD range of 450–630 nm.
For every sample, the mean of the three readings was computed. Cell survival was calculated at the very end using the following equation:(1) % of cell viability= Asample/Acontrol×100
Acontrol is the absorbance of the cell culture after treatment with formazan buffer and MTT without added any drug. […]

In series [3] the target is T1, ovine COX-1 (Ovis aries, UniProt P05979).
T1 construct: purchased Cayman Chemical Item No. 560131
T1 sequence (P05979 25-600): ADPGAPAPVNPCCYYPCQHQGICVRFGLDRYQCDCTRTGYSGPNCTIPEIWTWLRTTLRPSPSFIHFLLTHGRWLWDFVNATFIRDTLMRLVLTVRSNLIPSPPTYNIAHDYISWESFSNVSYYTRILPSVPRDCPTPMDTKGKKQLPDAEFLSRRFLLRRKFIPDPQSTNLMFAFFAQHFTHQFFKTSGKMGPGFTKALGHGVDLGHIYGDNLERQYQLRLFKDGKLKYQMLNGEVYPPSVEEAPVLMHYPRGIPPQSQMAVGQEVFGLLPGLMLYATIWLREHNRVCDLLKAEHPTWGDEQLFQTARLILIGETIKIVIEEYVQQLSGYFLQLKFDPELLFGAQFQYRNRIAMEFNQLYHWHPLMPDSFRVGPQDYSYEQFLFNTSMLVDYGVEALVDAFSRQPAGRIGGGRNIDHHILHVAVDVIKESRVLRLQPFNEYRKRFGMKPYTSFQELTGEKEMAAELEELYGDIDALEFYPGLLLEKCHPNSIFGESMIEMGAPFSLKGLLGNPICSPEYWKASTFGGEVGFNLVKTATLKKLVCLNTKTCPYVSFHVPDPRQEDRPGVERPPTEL
Kind of series: COX-1 inhibition, ELISA kit. It is filed as biochemical. The conditions noted are these: average of three determinations. The method, then:
(§1) The compounds’ abilities were evaluated in vitro to inhibit ovine COX-1 and human recombinant COX-2 isozymes using ELISA [46].
Background: In an ELISA, binding on a coated surface is turned into a signal by an enzyme label.

For series [4], the target named is T2, human recombinant COX-2 (Homo sapiens, UniProt P35354).
T2 construct: purchased Cayman Chemical Item No. 560131
T2 sequence (P35354 18-604): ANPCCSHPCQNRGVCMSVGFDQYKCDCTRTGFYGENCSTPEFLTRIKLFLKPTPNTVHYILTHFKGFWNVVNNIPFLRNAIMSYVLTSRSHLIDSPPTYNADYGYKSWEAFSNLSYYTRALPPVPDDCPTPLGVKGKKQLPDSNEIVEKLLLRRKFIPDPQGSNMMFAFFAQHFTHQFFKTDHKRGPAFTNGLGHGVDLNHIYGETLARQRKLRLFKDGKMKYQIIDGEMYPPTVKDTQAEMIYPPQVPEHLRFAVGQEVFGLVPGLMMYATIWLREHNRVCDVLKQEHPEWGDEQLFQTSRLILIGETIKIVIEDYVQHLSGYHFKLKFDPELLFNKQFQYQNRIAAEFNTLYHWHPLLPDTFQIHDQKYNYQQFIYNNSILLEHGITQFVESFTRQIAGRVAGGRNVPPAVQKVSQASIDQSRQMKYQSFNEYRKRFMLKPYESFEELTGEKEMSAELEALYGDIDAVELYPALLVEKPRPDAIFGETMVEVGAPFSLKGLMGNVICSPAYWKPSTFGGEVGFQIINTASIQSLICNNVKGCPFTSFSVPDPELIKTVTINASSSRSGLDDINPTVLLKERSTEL
Kind of series: COX-2 inhibition, ELISA kit. The class given is biochemical. The method, then: as §1

Series [5] is described as follows: Solubility in different solvents. The class given is physicochemical. The conditions noted are these: qualitative.

Like-named read-outs stand apart in the source and are kept apart here.

With `CC(C)Cc1ccc(C(C)C(=O)O)cc1` (stereo not drawn) [Ibuprofen, reference compound], the figures for the half-inhibitory concentration (IC50) in series [1] and in series [2] were […] and 31.4 µM, respectively.

On to `CC(=O)CC(C)=NNC(=O)C(C)c1ccc(CC(C)C)cc1` (stereo not drawn) [IA, (E)-2-(4-isobutylphenyl)-N′-(4-oxopentan-2-ylidene) propane hydrazide], for which the melting point is 135 °C. This molecule had a half-maximal inhibitory concentration (IC50) in series [3] of 10.2 µM. For the same molecule, the “COX-2 S.I.” value in series [4] (Selectivity index (COX-1 IC50/COX-2 IC50)) came to 2.8. For the same molecule, the IC50 in series [4] (average of three determinations) was determined as 3.6 µM. This molecule also gave an IC50 in series [1] of 946 nM. For the same molecule, the IC50 in series [2] (MTT test) was 3.43 µM. Also, in series [5], the Solubility in solvents result is “soluble in alcohols, DMSO, and DMF”.
